Measurements: patent US5229265A, “Process for analyzing clastogenic agents” (Litron Laboratories, priority 1990, dated 1993)
“And” between values parts separate entries of the source, which are not always exact repeats. Equal values may be shown once.

Columns and labels:
[1] = system: micronucleated cells in blood; assay: Single parameter flow cytometric micronucleus analysis, cyclophosphamide, effect of analysis window size; assay type: in vivo, mouse
Experimental: In order to show this single parameter embodiment of this invention, the instrument was aligned with the malaria parasite, P. berghei, data was acquired, and analysis windows were defined relative to the malaria peak. […] A prominent peak, characteristic of cells single parasites, is evident. The primary analysis window was used to bracket the main peak and extends to the third log has mark. […] Blood samples (t=0 and t=96 hr) from a mouse that was dosed with cyclophosphamide (at t=0 and t=48 hrs) were stained with […] and the events were also acquired in the single parameter mode. FIGS. 9A and 9B show the blue fluorescence histograms that were obtained for the t=0 and the t=96 hr samples, respectively. The analysis windows shown in FIG. 9 are those that were initially set up with the malaria infected blood sample shown in FIG. 8. The number of events present in the primary analysis windows are shown. […]
Practioners in the art are presently unaware of the need for internal quality control on the flow cytometer signals during the analysis of each sample. […] As indicated earlier, neither RBC, PCEs, MN-cells nor the nucleated cell populations provide proper signals for evaluating instrument alignment since they are either nor present in sufficient quantities, the populations are too dispersed, or cell staining variations would be introduced. […]

[2] = system: micronucleated cells in blood; assay: Flow cytometric micronucleus assay, dual parameter data, MMS, Hoechst 33258 & propidium iodide, per 500,000 cells; assay type: in vivo, mouse; details: MMS 100 μg/g body weight IP at 0 and 48 hours
Source text: The fixation procedure can affect the permeability of a cell, cell morphology and the amount of undesirable autofluorescence that is associated with a cell preparation. Fixing procedures can cause changes in cell structure (that are reflected in the light scatter patterns) as well as changes in the distribution of the dye molecules within the cells (resulting in altered fluorescence emission patterns). Practioners of the art are unaware that fixing the cells at ultralow temperatures circumvents these fixation problems and provides cells that are suitable for subsequent staining and FCM analysis. […] Cells fixed in this way can be stored at 0° C. for weeks with no significant deterioration and are ready for staining and MN analysis.
When two dyes are used for simultaneous micronucleus and PCE discrimination, the cell suspension is prepared as follows: The Hoechst 33258 working solution described above is prepared and is filtered through an 0.2 micron Acro-disk (Gilman Sciences). […] When blood from a malaria (P. berghei) infected mouse was fixed and stained by this procedure, the bivariate pattern shown in FIG. 1B resulted, in which a stronger red fluorescence signal was obtained. […] The pH of the stained solution is important for good fluorescence emission profiles and resolution of the different cell populations. […]

Row | SMILES | clastogen stimulated increase in MNs ([1]; cyclophosphamide at t=0 and t=48 hrs, primary or expanded window) | Sum96 (t = 96 hr) ([1]; cyclophosphamide, primary window plus sequentially added secondary windows 2-8) | Mns (96 hr) [2] | ΔMns (T96 - T0) [2]
1 | O=P1(N(CCCl)CCCl)NCCCO1 (stereo not shown) [cyclophosphamide] | clastogen stimulated increase in MNs is clearly evident | 1480 MN events and 1563 MN events and 1644 MN events and 1713 MN events and 1778 MN events and 1839 MN events and 1915 MN events |  | 
2 | COS(C)(=O)=O [MMS, methyl methanesulfonate] |  |  | 1416 MNs per 500,000 cells and 1394 MNs per 500,000 cells and 1282 MNs per 500,000 cells and 1535 MNs per 500,000 cells | 535 MNs per 500,000 cells and 563 MNs per 500,000 cells and 657 MNs per 500,000 cells and 399 MNs per 500,000 cells and 520 MNs per 500,000 cells and 535 ± 107 MNs per 500,000 cells
